Experimental data as given in patent US8735322B2, “Herbicides” (Syngenta Limited, priority 2008, dated 2014).

How the values were obtained:
Assay type in all cases: in vivo
[1] = system: Alopecurus myosuroides (ALOMY); experiment: Example A pre-emergence herbicidal activity, glasshouse pot test; conditions: 480 h, rate 500 g/ha, evaluated 20 days later, 100=total damage to plant, 0=no damage to plant
Procedure: (§1) Seeds of a variety of test species were sown in standard soil in pots. After cultivation for one day (pre-emergence) or after 10 days cultivation (post-emergence) under controlled conditions in a glasshouse, the plants were sprayed with an aqueous spray solution derived from the formulation of the technical active ingredient in 0.6 ml acetone and 45 ml formulation solution containing 10.6% Emulsogen EL (Registry number 61791-12-6), 42.2% N-methylpyrrolidone, 42.2% dipropylene glycol monomethyl ether (Registry number 34590-94-8) and 0.2% X-77 (Registry number 11097-66-8). The test plants were then grown in a greenhouse under optimum conditions until, 15 days later for post-emergence and 20 days for pre-emergence, the test was evaluated (100=total damage to plant; 0=no damage to plant). Alopecurus myosuroides (ALOMY), Avena fatua (AVEFA), Lolium perenne (LOLPE), Setaria faberi (SETFA), Digitaria sanguinalis (DIGSA), Echinochloa crus-galli (ECHCG) Pre-Emergence Activity

Avena fatua (AVEFA) [2] = experiment: as above; conditions: 480 h, rate 500 g/ha, evaluated 20 days later, 100=total damage to plant, 0=no damage to plant
Procedure: as §1

[3] = system: Digitaria sanguinalis (DIGSA); experiment: as above; conditions: 480 h, rate 500 g/ha, evaluated 20 days later, 100=total damage to plant, 0=no damage to plant
Procedure: as §1

[4] = system: Echinochloa crus-galli (ECHCG); experiment: as above; conditions: 480 h, rate 500 g/ha, evaluated 20 days later, 100=total damage to plant, 0=no damage to plant
Procedure: as §1

Lolium perenne (LOLPE) [5] = experiment: as above; conditions: 480 h, rate 500 g/ha, evaluated 20 days later, 100=total damage to plant, 0=no damage to plant
Procedure: as §1

Setaria faberi (SETFA) [6] = experiment: as above; conditions: 480 h, rate 500 g/ha, evaluated 20 days later, 100=total damage to plant, 0=no damage to plant
Procedure: as §1

[7] = system: Alopecurus myosuroides (ALOMY); experiment: Example A post-emergence herbicidal activity, glasshouse pot test; conditions: 360 h, evaluated 15 days after spraying, read-out: herbicidal damage ALOMY (100=total damage to plant; 0=no damage to plant); for pest or weed control at 500 g/ha: rate 500 g/ha; for pest or weed control at 125 g/ha: rate 125 g/ha
Procedure: as §1, with “Post Emergency” for “Pre-Emergence”

Avena fatua (AVEFA) [8] = experiment: as above; conditions: 360 h, evaluated 15 days after spraying, read-out: herbicidal damage AVEFA (100=total damage to plant; 0=no damage to plant); for pest or weed control at 500 g/ha: rate 500 g/ha; for pest or weed control at 125 g/ha: rate 125 g/ha
Procedure: as §1, with “Post Emergency” for “Pre-Emergence”

[9] = system: Digitaria sanguinalis (DIGSA); experiment: as above; conditions: 360 h, evaluated 15 days after spraying, read-out: herbicidal damage DIGSA (100=total damage to plant; 0=no damage to plant); for pest or weed control at 500 g/ha: rate 500 g/ha; for pest or weed control at 125 g/ha: rate 125 g/ha
Procedure: as §1, with “Post Emergency” for “Pre-Emergence”

[10] = system: Echinochloa crus-galli (ECHCG); experiment: as above; conditions: 360 h, evaluated 15 days after spraying, read-out: herbicidal damage ECHCG (100=total damage to plant; 0=no damage to plant); for pest or weed control at 500 g/ha: rate 500 g/ha; for pest or weed control at 125 g/ha: rate 125 g/ha
Procedure: as §1, with “Post Emergency” for “Pre-Emergence”

Lolium perenne (LOLPE) [11] = experiment: as above; conditions: 360 h, evaluated 15 days after spraying, read-out: herbicidal damage LOLPE (100=total damage to plant; 0=no damage to plant); for pest or weed control at 500 g/ha: rate 500 g/ha; for pest or weed control at 125 g/ha: rate 125 g/ha
Procedure: as §1, with “Post Emergency” for “Pre-Emergence”

Setaria faberi (SETFA) [12] = experiment: as above; conditions: 360 h, evaluated 15 days after spraying, read-out: herbicidal damage SETFA (100=total damage to plant; 0=no damage to plant); for pest or weed control at 500 g/ha: rate 500 g/ha; for pest or weed control at 125 g/ha: rate 125 g/ha
Procedure: as §1, with “Post Emergency” for “Pre-Emergence”

[13] = system: Alopecurus myosuroides (ALOMY); experiment: Example B pre-emergence herbicidal activity, glasshouse pot test; conditions: 312 h, rate 1000 g/ha, evaluated after 13 days, read-out: herbicidal damage ALOMY (100=total damage to plant; 0=no damage to plant)
Procedure: (§2) Seeds of a variety of test species were sown in standard soil in pots. After cultivation for one day (pre-emergence) or after 8 days cultivation (post-emergence) under controlled conditions in a glasshouse (at 24/16° C., day/night; 14 hours light; 65% humidity), the plants were sprayed with an aqueous spray solution derived from the formulation of the technical active ingredient in acetone/water (50:50) solution containing 0.5% Tween 20 (polyoxyethelyene sorbitan monolaurate, CAS RN 9005-64-5). The test plants were then grown in a glasshouse under controlled conditions in a glasshouse (at 24/16° C., day/night; 14 hours light; 65% humidity) and watered twice daily. After 13 days for pre and post-emergence, the test was evaluated (100=total damage to plant; 0=no damage to plant). Alopecurus myosuroides (ALOMY), Avena fatua (AVEFA), Setaria faberi (SETFA), Echinochloa crus-galli (ECHCG), Solanum nigrum (SOLNI) and Amaranthus retroflexus (AMARE) Pre-Emergence Activity

[14] = system: Amaranthus retroflexus (AMARE); experiment: as above; conditions: 312 h, rate 1000 g/ha, evaluated after 13 days, read-out: herbicidal damage AMARE (100=total damage to plant; 0=no damage to plant)
Procedure: as §2

Avena fatua (AVEFA) [15] = experiment: as above; conditions: 312 h, rate 1000 g/ha, evaluated after 13 days, read-out: herbicidal damage AVEFA (100=total damage to plant; 0=no damage to plant)
Procedure: as §2

[16] = system: Echinochloa crus-galli (ECHCG); experiment: as above; conditions: 312 h, rate 1000 g/ha, evaluated after 13 days, read-out: herbicidal damage ECHCG (100=total damage to plant; 0=no damage to plant)
Procedure: as §2

Setaria faberi (SETFA) [17] = experiment: as above; conditions: 312 h, rate 1000 g/ha, evaluated after 13 days, read-out: herbicidal damage SETFA (100=total damage to plant; 0=no damage to plant)
Procedure: as §2

Solanum nigrum (SOLNI) [18] = experiment: as above; conditions: 312 h, rate 1000 g/ha, evaluated after 13 days, read-out: herbicidal damage SOLNI (100=total damage to plant; 0=no damage to plant)
Procedure: as §2

[19] = system: Alopecurus myosuroides (ALOMY); experiment: Example B post-emergence herbicidal activity, glasshouse pot test; conditions: 312 h, rate 1000 g/ha, evaluated after 13 days, read-out: herbicidal damage ALOMY (100=total damage to plant; 0=no damage to plant)
Procedure: as §2, with “Post-Emergence” for “Pre-Emergence”

[20] = system: Amaranthus retroflexus (AMARE); experiment: as above; conditions: 312 h, rate 1000 g/ha, evaluated after 13 days, read-out: herbicidal damage AMARE (100=total damage to plant; 0=no damage to plant)
Procedure: as §2, with “Post-Emergence” for “Pre-Emergence”

Avena fatua (AVEFA) [21] = experiment: as above; conditions: 312 h, rate 1000 g/ha, evaluated after 13 days, read-out: herbicidal damage AVEFA (100=total damage to plant; 0=no damage to plant)
Procedure: as §2, with “Post-Emergence” for “Pre-Emergence”

[22] = system: Echinochloa crus-galli (ECHCG); experiment: as above; conditions: 312 h, rate 1000 g/ha, evaluated after 13 days, read-out: herbicidal damage ECHCG (100=total damage to plant; 0=no damage to plant)
Procedure: as §2, with “Post-Emergence” for “Pre-Emergence”

Setaria faberi (SETFA) [23] = experiment: as above; conditions: 312 h, rate 1000 g/ha, evaluated after 13 days, read-out: herbicidal damage SETFA (100=total damage to plant; 0=no damage to plant)
Procedure: as §2, with “Post-Emergence” for “Pre-Emergence”

Solanum nigrum (SOLNI) [24] = experiment: as above; conditions: 312 h, rate 1000 g/ha, evaluated after 13 days, read-out: herbicidal damage SOLNI (100=total damage to plant; 0=no damage to plant)
Procedure: as §2, with “Post-Emergence” for “Pre-Emergence”

Compound | pest or weed control at 500 g/ha [1] | pest or weed control at 500 g/ha (Avena fatua (AVEFA) [2]) | pest or weed control at 500 g/ha [3] | pest or weed control at 500 g/ha [4] | pest or weed control at 500 g/ha (Lolium perenne (LOLPE) [5]) | pest or weed control at 500 g/ha (Setaria faberi (SETFA) [6]) | pest or weed control at 125 g/ha [7] | pest or weed control at 125 g/ha (Avena fatua (AVEFA) [8]) | pest or weed control at 125 g/ha [9] | pest or weed control at 125 g/ha [10] | pest or weed control at 125 g/ha (Lolium perenne (LOLPE) [11]) | pest or weed control at 125 g/ha (Setaria faberi (SETFA) [12]) | other results
CCc1cc(C)cc(CC)c1C1=C(O)CC(CC2CCSCC2)CC1=O (stereo not drawn) [Compound A-14] | 80% | 70% | 100% | 80% | 90% | 100% | – | – | – | – | – | – | pest or weed control at 500 g/ha [7]: 100%; pest or weed control at 500 g/ha (Avena fatua (AVEFA) [8]): 100%; pest or weed control at 500 g/ha [9]: 70%; pest or weed control at 500 g/ha [10]: 100%; pest or weed control at 500 g/ha (Lolium perenne (LOLPE) [11]): 90%; pest or weed control at 500 g/ha (Setaria faberi (SETFA) [12]): 100%
Cc1ccc(-c2ccc(Cl)cc2)cc1C1=C(O)CC(C(C)C2CCOCC2)CC1=O (stereo not drawn) [Compound A-15] | 10% | 40% | 20% | 10% | 0% | 20% | – | – | – | – | – | – | pest or weed control at 500 g/ha [7]: 60%; pest or weed control at 500 g/ha (Avena fatua (AVEFA) [8]): 30%; pest or weed control at 500 g/ha [9]: 70%; pest or weed control at 500 g/ha [10]: 50%; pest or weed control at 500 g/ha (Lolium perenne (LOLPE) [11]): 30%; pest or weed control at 500 g/ha (Setaria faberi (SETFA) [12]): 30%
CCc1cc(C)cc(CC)c1C1=C(O)CC(CC2CCS(=O)(=O)CC2)CC1=O (stereo not drawn) [Compound A-17] | 100% | 100% | 100% | 100% | 100% | 100% | 90% | 100% | 80% | 100% | 90% | 50% | –
CCc1cc(C)cc(CC)c1C1=C(O)CC(C(C)C2CCOC2)CC1=O (stereo not drawn) [Compound A-18] | 90% | 100% | 100% | 100% | 100% | 100% | 100% | 90% | 80% | 100% | 100% | 50% | –
CCc1cc(CC)c(C2=C(O)CC(CC3CCOCC3)CC2=O)c(CC)c1 (stereo not drawn) [Compound A-19] | 100% | 60% | 100% | 100% | 100% | 100% | 70% | 20% | 60% | 70% | 70% | 60% | –
CCc1ccc(-c2ccc(Cl)cc2)cc1C1=C(O)CC(CC2CCOCC2)CC1=O (stereo not drawn) [Compound A-20] | 50% | 10% | 40% | 100% | 40% | 70% | 40% | 60% | 100% | 100% | 40% | 80% | –
CCc1ccccc1C1=C(O)CC(CC2CCOCC2)CC1=O (stereo not drawn) [Compound A-31] | 60% | 50% | 100% | 70% | 40% | 100% | 60% | 60% | 30% | 50% | 60% | 40% | pest or weed control at 1000 g/ha [13]: 100%; pest or weed control at 1000 g/ha [14]: 0%; pest or weed control at 1000 g/ha (Avena fatua (AVEFA) [15]): 40%; pest or weed control at 1000 g/ha [16]: 100%; pest or weed control at 1000 g/ha (Setaria faberi (SETFA) [17]): 100%; pest or weed control at 1000 g/ha (Solanum nigrum (SOLNI) [18]): 0%; pest or weed control at 1000 g/ha [19]: 100%; pest or weed control at 1000 g/ha [20]: 0%; pest or weed control at 1000 g/ha (Avena fatua (AVEFA) [21]): 90%; pest or weed control at 1000 g/ha [22]: 100%; pest or weed control at 1000 g/ha (Setaria faberi (SETFA) [23]): 100%; pest or weed control at 1000 g/ha (Solanum nigrum (SOLNI) [24]): 0%
